Data as given in patent US8372594B2, “Secreted phospholipase A2 biomarkers for arthritis” (Case Western Reserve University, priority 2009, dated 2013).

Tests used:
[1] = tested on: several sPLA2 isoforms; assay: inhibition of several sPLA2 isoforms; type: biochemical
[2] = target: T1, sPLA2-IIA (Homo sapiens, UniProt P14555); assay: inhibition of sPLA2-IIA activity; type: biochemical; conditions: finding of the present invention
T1 sequence (P14555 21-144): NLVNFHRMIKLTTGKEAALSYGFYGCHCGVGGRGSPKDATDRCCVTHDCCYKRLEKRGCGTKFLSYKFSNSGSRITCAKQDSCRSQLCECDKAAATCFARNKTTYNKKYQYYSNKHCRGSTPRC

| SMILES | inhibition of the activity of several sPLA2 isoforms [1] | preferential inhibition of sPLA2-IIA [2] |
| --- | --- | --- |
| CCc1c(C(=O)C(N)=O)c2c(OCC(=O)O)cc3ccccc3c2n1Cc1ccccc1 [R0050907A] | inhibits the activity of several sPLA2 isoforms | – |
| CCc1c(C(=O)C(N)=O)c2c(OCC(=O)O)cccc2n1Cc1ccccc1 [Compound B] | – | preferentially inhibit sPLA2-IIA |
| CCc1c(C(=O)C(N)=O)c2c(OC)cc3ccccc3c2n1Cc1ccccc1 [R0032107A] | – | preferentially inhibit sPLA2-IIA |
